Each block holds one molecule with its values, some of them ahead of it.
How the values were obtained:
[1] = tested on: recombinant human HDAC enzymes; experiment: HDAC isotype selectivity across recombinant HDAC enzymes; format: biochemical; conditions: from Table 1
Excerpt: (§1) cDNAs of human HDAC1-8 and 11 were generated by RT-PCR reactions using primers complementary to the 5′ and 3′ coding sequence of human HDAC gene sequences in GenBank. cDNAs corresponding to the full length human HDAC1, 2, 3 and 11 were cloned into pBlueBac4.5 vector (Invitrogen). The constructs were used to generate recombinant baculoviruses using the Bac-N-Blue™ DNA according to the manufacturer's instructions (Invitrogen). The recombinant HDAC1, 2, 3, 11 proteins produced harbor a FLAG tag at their C-termini. cDNAs encoding truncated versions of HDAC4, 5 and 7 encompassing their deacetylase domains were cloned into pDEST10 as an N-terminal hexahistidine fusion protein and recombinant baculoviruses were generated using the Bac-to-Bac™ Baculovirus expression system (Invitrogen). HDAC6 and 8 were cloned as full length N-terminally His-tagged protein. All HDAC proteins were expressed in insect Sf-9 cells (Spodoptera frugiperdai) upon infection with recombinant baculovirus. HDAC1 enzyme was purified from the Q-sepharose FF column (Amersham Pharmacia Biotech, Baie d'Urfe QC, Canada) followed by an anti-FLAG immunoaffinity column (Sigma). […] HDAC4, 5, 6, 7 and 8 were purified using either Ni-NTA resin (QIAGEN Mississauga ON, Canada) or His-Select resin (Sigma) with step washes and elution with different concentrations of imidazole in Buffer containing 25 mM Tris (or NaPO4) pH 8.0, 10% glycerol and 150 mM or 500 mM NaCl.
(§2) Boc-Lys(Ac)-AMC (for HDAC1, 2, 3, 6, and 8 enzymes), which was purchased from Bachem Biosciences Inc., (King of Prussia, Philadelphia) were added into enzyme-compound mixture and incubated at 37° C. For HDAC4, 5, 7 assays, Boc-Lys(TFA)-AMC, which was synthesized in house, was used as substrate and 0.1% BSA was added to the buffer. […] Reaction time was predetermined to ensure that reaction was linear for the incubation time. Reaction was stopped by adding a freshly prepared trypsin (1 mg/ml final concentration) with 1 μM TSA (Biomol) in assay buffer. After 30 minutes, fluorescence was measured using a fluorometer (SPECTRAMAX GeminiXS, Molecular Devices, Sunnylvale, Calif.).

[2] = target: T1, HDAC2 (Homo sapiens, UniProt Q92769); experiment: Fluorescence-based HDAC enzyme assay, recombinant HDAC2; format: biochemical; conditions: recombinant human HDAC enzyme in vitro; read-out: IC50 (μM) HD2
T1 construct: cDNAs corresponding to the full length human HDAC1, 2, 3 and 11 were cloned into pBlueBac4.5 vector; FLAG (C); made in house; host or cells: Sf-9 insect cells (baculovirus)
T1 sequence (Q92769 whole entry): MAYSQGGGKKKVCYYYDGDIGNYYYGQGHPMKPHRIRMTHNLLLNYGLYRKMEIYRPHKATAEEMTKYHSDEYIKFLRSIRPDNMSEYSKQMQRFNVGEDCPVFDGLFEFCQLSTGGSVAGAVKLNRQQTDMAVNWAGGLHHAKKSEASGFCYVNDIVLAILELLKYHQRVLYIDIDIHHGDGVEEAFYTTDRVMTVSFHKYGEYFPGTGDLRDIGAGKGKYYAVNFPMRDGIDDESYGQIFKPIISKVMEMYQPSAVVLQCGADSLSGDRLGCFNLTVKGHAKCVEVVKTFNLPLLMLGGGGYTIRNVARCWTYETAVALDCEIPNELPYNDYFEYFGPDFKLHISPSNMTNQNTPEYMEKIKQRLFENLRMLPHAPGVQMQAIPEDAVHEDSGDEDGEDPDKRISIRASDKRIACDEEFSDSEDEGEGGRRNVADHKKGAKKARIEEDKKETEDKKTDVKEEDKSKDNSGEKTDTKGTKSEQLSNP
Excerpt: as §1, §2

[3] = target: T2, HDAC1 (Homo sapiens, UniProt Q13547); experiment: Fluorescence-based HDAC enzyme assay, recombinant HDAC1; format: biochemical; conditions: recombinant human HDAC enzyme in vitro; read-out: IC50 (μM) HD1
T2 construct: cDNAs corresponding to the full length human HDAC1, 2, 3 and 11 were cloned into pBlueBac4.5 vector; FLAG (C); made in house; host or cells: Sf-9 insect cells (baculovirus)
T2 sequence (Q13547 whole entry): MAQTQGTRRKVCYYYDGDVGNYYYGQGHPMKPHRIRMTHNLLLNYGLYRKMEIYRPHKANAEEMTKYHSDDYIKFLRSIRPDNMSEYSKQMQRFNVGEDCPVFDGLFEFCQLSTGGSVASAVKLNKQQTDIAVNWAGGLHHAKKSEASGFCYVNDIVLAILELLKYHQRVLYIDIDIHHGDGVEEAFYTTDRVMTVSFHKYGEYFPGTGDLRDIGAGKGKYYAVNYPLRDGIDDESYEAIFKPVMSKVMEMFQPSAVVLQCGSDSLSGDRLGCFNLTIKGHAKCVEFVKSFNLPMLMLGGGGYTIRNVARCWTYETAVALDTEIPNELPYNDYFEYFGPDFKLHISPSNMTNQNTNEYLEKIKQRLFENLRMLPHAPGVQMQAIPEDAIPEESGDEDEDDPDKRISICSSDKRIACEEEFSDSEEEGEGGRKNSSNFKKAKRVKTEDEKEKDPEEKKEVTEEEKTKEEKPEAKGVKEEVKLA
Excerpt: as §1, §2

[4] = target: T3, HDAC3 (Homo sapiens, UniProt O15379); experiment: Fluorescence-based HDAC enzyme assay, recombinant HDAC3; format: biochemical; conditions: recombinant human HDAC enzyme in vitro; read-out: IC50 (μM) HD3
T3 construct: cDNAs corresponding to the full length human HDAC1, 2, 3 and 11 were cloned into pBlueBac4.5 vector; FLAG (C); made in house; host or cells: Sf-9 insect cells (baculovirus)
T3 sequence (O15379 whole entry): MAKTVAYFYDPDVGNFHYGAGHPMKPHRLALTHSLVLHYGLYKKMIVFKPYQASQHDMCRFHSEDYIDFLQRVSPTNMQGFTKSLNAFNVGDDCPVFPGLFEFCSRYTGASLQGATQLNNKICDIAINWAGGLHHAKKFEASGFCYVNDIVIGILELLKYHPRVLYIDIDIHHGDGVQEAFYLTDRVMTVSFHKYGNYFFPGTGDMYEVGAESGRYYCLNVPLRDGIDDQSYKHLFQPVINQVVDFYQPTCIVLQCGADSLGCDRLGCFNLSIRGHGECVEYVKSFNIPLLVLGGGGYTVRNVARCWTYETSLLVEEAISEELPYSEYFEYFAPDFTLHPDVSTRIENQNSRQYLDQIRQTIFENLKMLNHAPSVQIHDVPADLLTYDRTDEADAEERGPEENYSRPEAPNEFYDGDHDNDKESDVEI
Excerpt: cDNAs of human HDAC1-8 and 11 were generated by RT-PCR reactions using primers complementary to the 5′ and 3′ coding sequence of human HDAC gene sequences in GenBank. cDNAs corresponding to the full length human HDAC1, 2, 3 and 11 were cloned into pBlueBac4.5 vector (Invitrogen). The constructs were used to generate recombinant baculoviruses using the Bac-N-Blue™ DNA according to the manufacturer's instructions (Invitrogen). The recombinant HDAC1, 2, 3, 11 proteins produced harbor a FLAG tag at their C-termini. cDNAs encoding truncated versions of HDAC4, 5 and 7 encompassing their deacetylase domains were cloned into pDEST10 as an N-terminal hexahistidine fusion protein and recombinant baculoviruses were generated using the Bac-to-Bac™ Baculovirus expression system (Invitrogen). HDAC6 and 8 were cloned as full length N-terminally His-tagged protein. All HDAC proteins were expressed in insect Sf-9 cells (Spodoptera frugiperdai) upon infection with recombinant baculovirus. HDAC1 enzyme was purified from the Q-sepharose FF column (Amersham Pharmacia Biotech, Baie d'Urfe QC, Canada) followed by an anti-FLAG immunoaffinity column (Sigma). HDAC2, 3 and 11 were purified using Flag-antibody immunoaffinity purification. HDAC4, 5, 6, 7 and 8 were purified using either Ni-NTA resin (QIAGEN Mississauga ON, Canada) or His-Select resin (Sigma) with step washes and elution with different concentrations of imidazole in Buffer containing 25 mM Tris (or NaPO4) pH 8.0, 10% glycerol and 150 mM or 500 mM NaCl.
Recombinant HDAC enzymes were incubated with diluted compounds in assay buffer (25 mM Hepes, pH 8.0, 137 mM NaCl, 1 mM MgCl2 and 2.7 mM KCl) for 10 minutes at ambient temperatures in black 96-well plate. Boc-Lys(Ac)-AMC (for HDAC1, 2, 3, 6, and 8 enzymes), which was purchased from Bachem Biosciences Inc., (King of Prussia, Philadelphia) were added into enzyme-compound mixture and incubated at 37° C. […] After 30 minutes, fluorescence was measured using a fluorometer (SPECTRAMAX GeminiXS, Molecular Devices, Sunnylvale, Calif.). […]

[5] = tested on: histone H3 acetylation in human bladder carcinoma T24 cells; experiment: Cell-based ELISA for H3 acetylation
Procedure: (§3) Bladder carcinoma T24 cells were seeded in black plates with clear bottoms (Costar #3603) at 1×10^4 cells per well in a volume of 100 μl per well, and were allowed to settle for one day at 37° C. in a CO2 incubator. The cells were treated for 16 h with various concentrations of HDAC inhibitors. 3 h before the end of the treatment, Alamar Blue (BioSource) was added to monitor cell viability according to the manufacturer's instructions. At the end of the treatment time, Alamar Blue OD (at 570 nm and 600 nm) was recorded, then the cells were carefully washed in PBS, fixed in pre-chilled methanol for 10 min at −20° C., washed again twice in PBS, and blocked in PBS containing 0.1% Triton X-100 and 1% BSA for a minimum of 30 min. For H3 acetylation, rabbit-anti-acetyl-H3 (Upstate #06-599) was used as primary antibody at a dilution of 1:1000 for 45 min; the secondary antibody was HRP-coupled goat-anti-rabbit (Sigma #A-0545), used at 1:8000 for 45 min. For tubulin acetylation, the primary antibody was mouse anti-acetyl-tubulin (Sigma #T-6793, 1:2000, 45 min) while the secondary was HRP-coupled goat-anti-mouse antibody (Sigma #A-2304, 1:8000, 45 min). All antibodies were diluted in blocking buffer, and the cells were washed in blocking buffer following each antibody incubation. […] The fluorescent signal for acetylation was normalized by dividing with the viability data obtained from Alamar Blue. EC50 was defined as the concentration of compound which gave a signal half-way between the basal (untreated) level and the maximum level generated by high doses of the HDAC pan-inhibitor NVP-LAQ-824.

[6] = tested on: tubulin acetylation in human bladder carcinoma T24 cells; experiment: Cell-based ELISA for tubulin acetylation
Procedure: as §3

[7] = tested on: TSP-1 expression in cancer cells (Du145, H460, A549); experiment: TSP-1 transcription in cancer cells in vitro; format: cell-based, human; conditions: over time, 3 microM, 24 hours
Procedure: (§4) Cells were exposed by Cpd A or SAHA (3 microM) for 24 hours. Total RNA was collected by Isogen (Nippongene, Tokyo, Japan) and reverse-transcribed to cDNA by ExScript® RT reagent Kit (TAKARA, Kyoto, Japan). The expression level of TSP-1 mRNA was detected by ABI7700 analyzer using a probe/primer pre-mixture reagent (ABI, Cat#, CA, USA) and TaqMan® Universal PCR Master Mix (ABI, Cat# 430-4437) as described in the ABI's protocol.

[8] = tested on: VEGF expression in DU145 cells; experiment: VEGF transcription in Du145 cells in vitro; format: cell-based, human; conditions: 24 hour treatment
Procedure: as §4, with “Human prostate cancer Du145 cells were” for “Cells were”, “exposed to” for “exposed by”, “of bFGF” for “of TSP-1”, “using” for “using a”, “(ABI, Cat# Hs00266645_m1,” for “(ABI, Cat#,”, “protocol. The expression level of VEGF mRNA was detected in a similar manner using the appropriate probe/primer reagents.” for “protocol.”

[9] = tested on: bFGF transcription in human prostate cancer Du145 cells; experiment: bFGF transcription in Du145 cells in vitro; format: cell-based; conditions: 3 μM, 24 hour treatment
Procedure: as §4, with “Human prostate cancer Du145 cells were” for “Cells were”, “exposed to” for “exposed by”, “of bFGF” for “of TSP-1”, “using” for “using a”, “(ABI, Cat# Hs00266645_m1,” for “(ABI, Cat#,”, “protocol. The expression level of VEGF mRNA was detected in a similar manner using the appropriate probe/primer reagents.” for “protocol.”

[10] = tested on: human H460 non-small cell lung tumor, Du145 prostate tumor, TSU-Pr1 prostate tumor, and AZ521 gastric tumor xenograft; experiment: Xenograft combination studies with taxol (Example 15); format: in vivo, mouse; conditions: oral administration, nude mice with human lung, prostate and gastric tumors
Procedure: (§5) Antitumor studies were done using human H460 non-small cell lung tumor, Du145 prostate tumor, TSU-Pr1 prostate tumor, and AZ521 gastric tumor xenograft model in male BALBc/A nude mice (from Japan Crea Inc., Japan). Male nude mice were used at age 8-10 weeks. Human carcinoma cells were injected subcutaneously in the animal flank and allowed to form solid tumors. Tumor fragments (about 2 mm^3 fragments) were then removed and implanted subcutaneously through a small surgical incision to the right flank of other animals. […] Tumor volumes and gross body weight of animals were monitored twice weekly for up to 2 weeks for AZ-521 and TSU-Pr1, or 4 weeks for H460 and Du145 xenografts. Each experimental group contained 6 animals.

[11] = tested on: H460 (NSCLC) xenografts; experiment: H460 (NSCLC) xenograft, oral HDAC inhibitor with taxol; format: in vivo, mouse; conditions: Compound A 100 mg/kg or SAHA 120 mg/kg with taxol 60 mg/kg
Procedure: as §5

[12] = tested on: mouse endothelial MS-1 cells; experiment: Growth inhibition of MS-1 cells by taxol with recombinant TSP-1; format: cell-based; conditions: recombinant TSP1 10 ug/ml, 72 hour
Procedure: Mouse endothelial MS-1 cells were seeded into 96 well-plate and incubated in 5% CO2 incubator for 24 hours. Taxol at various concentrations was added into cell culture and 6 hours later media were replaced with fresh media containing recombinant TSP1 (10 ug/ml) but without taxol. After 72 hour incubation, the growth inhibitory effect was determined by crystal violet staining.

HDAC isotype selectivity [1]: inactive
IC50 [2]: > 10 µM
IC50 [3]: > 10 µM
IC50 [4]: > 10 µM
Molecule: O=C(Nc1ccccc1)c1ccc(CNc2nccc(-c3cccnc3)n2)cc1 [Compound C]

Molecule: O=C(/C=C/c1ccc(CN(CCO)CCc2c[nH]c3ccccc23)cc1)NO [NVP-LAQ824]
histone H3 acetylation [5]: Nonselective effect
tubulin acetylation [6]: Nonselective effect

Molecule: O=C(CCCCCCC(=O)Nc1ccccc1)NO [SAHA, reference compound]
TSP-1 expression [7]: Induction
histone H3 acetylation [5]: Nonselective effect
VEGF expression [8]: Reduction
bFGF transcription [9]: Reduction
tubulin acetylation [6]: Nonselective effect
antitumor activity of taxol [10]: Potentiation
tumor response to combination therapy with taxol [11]: tumor regression

Molecule: Recombinant TSP-1: recombinant thrombospondin-1, agonist of TSP1 receptor
proapoptotic effect of taxol [12]: Potentiates

Source: patent US20090124631A1, “Combination Therapy” (priority 2007, published 2009)
